How the values were obtained:
ovarian cancer cells = assay: Nuclear proteins in exosomes from drug-treated ovarian cancer cells (Western blot); format: cell-based, human; settings: topotecan 10 nM or olaparib 20 μM
Method: (§1) Isolation of exosomes. The isolation method for exosomes that was used in this study followed the standard methods of the International Society of Extracellular Vesicles (Witwer et al., 2013). Cell lines described above were grown in the corresponding medium described above until 60 to 70% confluence was achieved. Cells were then washed twice with phosphate-buffered saline (PBS) and grown in corresponding medium containing 1% exosome-free FBS (EXO-FBS-250A-1, System Biosciences) plus 0.1% gentamicin for 48 hours. For exosome isolation, the harvested medium underwent serial centrifugation. First, the medium was spun down at 500g for 10 min to pellet any floating cells. Next, the supernatant was collected and spun down at 2000g for 30 min to pellet any residual cell debris. The resulting supernatant was then filtered through a 0.22-μm filter (SCGPUO5RE and SLGP033RS, Millipore-Sigma) to remove any remaining large vesicles. After filtration, the medium was spun down at 40,000 rpm for 2 hours at 4° C. in an ultracentrifuge (Optima XE, Beckman Coulter) with a Ti 45 fixed-angle rotor (339160, Beckman Coulter). […] Exosome concentration and quantity were determined using NTA with a NanoSight NS300 instrument (Malvern Panalytical).
Western blotting. […] Protein concentration was determined using the Micro BCA Protein Assay Kit (23235, Thermo Fisher Scientific) according to the manufacturer's protocol. […]

[1] = tested on: OVCAR-5 and OVCAR-8 cells; assay: DNA-positive exosomes (nExo) from drug-treated ovarian cancer cells by imaging flow cytometry; format: cell-based, human; settings: topotecan 10 nM or olaparib 20 μM, parental cells treated 48 hours, vs DMSO
Method: as §1, with “vesicles.” for “vesicles. After filtration, the medium was spun down at 40,000 rpm for 2 hours at 4° C. in an ultracentrifuge (Optima XE, Beckman Coulter) with a Ti 45 fixed-angle rotor (339160, Beckman Coulter).”
Exosome staining for imaging flow cytometry and analysis. For quantitative analysis and imaging flow cytometry of exosomes, the method described by Erdbrugger et al. (2014) using an Amnis ImageStreamX MarkII analyzer was adapted. […]

CC[C@@]1(O)C(=O)OCc2c1cc1n(c2=O)Cc2cc3c(CN(C)C)c(O)ccc3nc2-1 [topotecan]
population of exosomes containing nuclear proteins (ovarian cancer cells): increased
population of exosomes containing gDNA (proportion of nExo secreted) [1]: increased
